Reference: patent publication US20090123474A1, “COMBINATION OF ANGIOPOIETIN-2 ANTAGONIST AND OF VEGF-A, KDR AND/OR FLTL ANTAGONIST FOR TREATING CANCER” (ASTRAZENECA AB, priority 2005, published 2009)

Tests used:
Format in all cases: in vivo
[1] = test system: A431 human tumour xenografts; assay: A431 xenograft efficacy study (Study A); details: 3.19.3 10 mg/kg 2×wk i.p., VTKI 3 mg/kg/day p.o.
Experimental: (§1) The anti-tumor activity of monoclonal antibody 3.19.3 in combination with the VTKI 4-(4-fluoro-2-methylindol-5-yloxy)-6-methoxy-7-(3-piperidinopropoxy)quinazoline was evaluated in a xenograft model of human skin epidermoid carcinoma (Study A) and in a model of colorectal cancer (Study B) by using the A431 and Colo205 cell lines respectively.
(§2) A431 and Colo205 cells were cultured in flasks as routine until the cells reached sub-confluence. Immunodeficient 6-8 week old female mice (Ncr/nu/nu) were used. The cells were harvested and suspended in Matrigel. A cell suspension containing 1 to 5×10^6 cells was injected subcutaneously into the flank of the mice. The mice were randomized into different groups, each containing 10-15 mice. When the tumour volume reached 200 mm^3, the mice were randomized in each groups and the treatments were initiated. mAb 3.19.3 10 mg/kg in saline was injected intraperitoneally, twice per week for 2 weeks. 4-(4-fluoro-2-methylindol-5-yloxy)-6-methoxy-7-(3-piperidinopropoxy)quinazoline was treated peroral daily at doses ranging from 1.5 to 6 mg/kg in water containing 1% Tween80. The dimensions of each tumor were measured twice per week. The volume of the tumor was calculated as: Volume=Length×(Width)^2×0.5 (cm^3).

[2] = test system: human Colo205 colon tumour xenografts; assay: Colo205 xenograft efficacy study (Study B); details: 3.19.3 10 mg/kg 2×wk i.p., VTKI 6 mg/kg/day p.o.
Experimental: as §1, §2

[3] = test system: human HT29 colon tumour xenografts; assay: HT29 xenograft efficacy study; details: AZD2171 1.5 mg/kg/day p.o. d 0-27, 3.19.3 10 mg/kg i.p. day 0, 3, 7, 10, 14, 17, 21 and 24
Experimental: The efficacy of mAb 3.19.3 in combination with AZD2171 was evaluated in human HT29 xenografts. Briefly, 5×10^6 HT29 tumour cells in 0.1 ml of serum free Roswell Park Memorial Institute (RPMI)-1640 medium were injected subcutaneously into the flanks of 60 athymic (nu/nu genotype) mice. When tumours reached a volume of 200 to 400 mm^3 (9-10 days), mice were randomized into groups (8 per group) and treatment started (day 0).
The control group (Group 1) received a daily oral (p.o.) administration of vehicle only for 28 consecutive days (day 0-27). Group 2 treatment consisted of a daily p.o. administration of AZD2171 alone at 1.5 mg/kg/administration for 28 consecutive days (day 0-27). AZD2171 was prepared as a suspension in 1% polysorbate 80 (i.e. a 1% (v/v) solution of polyoxyethylene (20) sorbitan mono-oleate in deionised water). […]
Tumour volumes (mm^3) were assessed at least twice weekly by bilateral Vernier caliper measurement and, taking length to be the longest diameter across the tumor and width the corresponding perpendicular, calculated using the formula (π/6)×(length×width)×√ (length×width). Growth inhibition from the start of treatment was assessed by comparison of the differences in tumor volume between control and treated groups. […] For all mice, the tumours were excised and weights recorded upon termination of the study.

[4] = test system: human LoVo colon tumour xenografts; details: 3.19.3 10 mg/kg 2×wk i.p., Zactima 50 mg/kg/day p.o.
Experimental: The anti-tumor activity of monoclonal antibody 3.19.3 was evaluated in the LoVo xenograft model of colorectal cancer. Briefly, LoVo cells were cultured in flasks as routine until the cells reached sub-confluence. Immunodeficient 8 week old male NCr nude mice were used. Cell suspensions containing 3×10^6 cells were injected subcutaneously into the right flank of the mice, and after the tumour volume reached 200 mm^3, the mice were randomized in groups and the treatments were initiated. mAb 3.19.3 10 mg/kg in saline was injected intraperitoneally, twice per week for 2 weeks. Zactima™ was treated peroral daily at doses ranging from 25 to 50 mg/kg in water containing 1% Tween80. The dimensions of each tumor were measured twice per week. The volume of the tumor was calculated as: Volume=Length×(Width)^2×0.5 (cm^3).

COc1cc2c(Oc3ccc4[nH]c(C)cc4c3F)ncnc2cc1OCCCN1CCCCC1 [4-(4-fluoro-2-methylindol-5-yloxy)-6-methoxy-7-(3-piperidinopropoxy)quinazoline, reference compound]
% tumor growth inhibition [1]: 69%
% inhibition [2]: 57%

COc1cc2c(Oc3ccc4[nH]c(C)cc4c3F)ncnc2cc1OCCCN1CCCC1 [AZD2171, reference compound]
Inhibition of Control Tumour Growth Day 28 [3]: 55%

COc1cc2c(Nc3ccc(Br)cc3F)ncnc2cc1OCC1CCN(C)CC1 [Zactima™, reference compound]
tumour inhibition [4]: 46%
